This passage reports T/C results from PubChem BioAssay AID330 (DTP/NCI, 2004).

“And” between values parts separate entries of the source, which are not always exact repeats. Equal entries are not always repeated. Inconclusive results and toxic doses are left out.

For this assay, the system named is P388 leukemia ip, CD2F1 mice, survival T/C. Briefly: NCI In Vivo Anticancer Drug Screen. Data for tumor model P388 Leukemia (intraperitoneal) in CD2F1 (CDF1) mice. To be noted: endpoint: median survival time, higher = longer survival. In outline: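 Mice carrying the transplanted tumor received test compound or vehicle. Survival was recorded in each group, and the value is the treated-group measurement divided by that of the vehicle-treated control group.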

Setting [1] is: dose: 50.0 mg/kg/injection, schedule: Q01DX005 (ip), vehicle: saline with Tween-80.
Setting [2] is: dose: 100.0 mg/kg/injection, schedule: Q01DX005 (ip), vehicle: saline with Tween-80.
[3] abbreviates: dose: 50.0 mg/kg/injection, schedule: Q01DX009 (ip), vehicle: saline with Tween-80.
Setting [4] is: dose: 100.0 mg/kg/injection, schedule: Q01DX009 (ip), vehicle: saline with Tween-80.
Where [5] appears, read: dose: 12.5 mg/kg/injection, schedule: Q01DX005 (ip), vehicle: saline with Tween-80.
[6] abbreviates: dose: 25.0 mg/kg/injection, schedule: Q01DX005 (ip), vehicle: saline with Tween-80.
The mark [7] stands for this setting: dose: 50.0 mg/kg/injection, schedule: Q01DX009 (ip), vehicle: saline.
Where [8] appears, read: dose: 100.0 mg/kg/injection, schedule: Q01DX009 (ip), vehicle: saline.
Setting [9] is: dose: 200.0 mg/kg/injection, schedule: Q01DX009 (ip), vehicle: saline.
The mark [10] stands for this setting: dose: 200.0 mg/kg/injection, schedule: Q01DX009 (ip), vehicle: saline with Tween-80.

In the case of `CCOc1ccc(NC(=S)NC2OC(COC(C)=O)C(OC(C)=O)C(OC(C)=O)C2OC(C)=O)cc1` (stereo not given), the T/C is 101 % of control under setting [1]; 91 % of control under setting [2]; 92 % of control (dose: 200.0 mg/kg/injection, schedule: Q01DX005 (ip), vehicle: saline with Tween-80).
Turning to `CCOC(=O)C(c1ccccc1)N(CCCN(CC)CC)c1ccccc1` (stereo not given), the T/C is 108 % of control (dose: 12.5 mg/kg/injection, schedule: Q01DX005 (ip), vehicle: saline); 108 % of control (dose: 25.0 mg/kg/injection, schedule: Q01DX005 (ip), vehicle: saline); 100 % of control under setting [1]; 101 % of control (dose: 50.0 mg/kg/injection, schedule: Q01DX005 (ip), vehicle: saline).
For `COc1cccc2c1C(=O)c1c(O)c3c(c(O)c1C2=O)C[C@@](O)(c1csc(-c2ccccc2)n1)C[C@@H]3OC1CC(N)C(O)C(C)O1` (stereo not given in full), the T/C reads like this: (dose: 1.56 mg/kg/injection, schedule: Q01DX009 (ip), vehicle: water) 174 % of control; (dose: 3.13 mg/kg/injection, schedule: Q01DX009 (ip), vehicle: water) 165 % of control; (dose: 6.25 mg/kg/injection, schedule: Q01DX009 (ip), vehicle: water) 182 % of control.
Consider `COc1cc(CO)c(I)c(OC)c1OC`, for which the T/C (dose: 100.0 mg/kg/injection, schedule: Q01DX001 (ip), vehicle: Klucel (hydroxypropylcellulose) (HPC)) was 99 % of control and the T/C (dose: 200.0 mg/kg/injection, schedule: Q01DX001 (ip), vehicle: Klucel (hydroxypropylcellulose) (HPC)) was 97 % of control.
For the compound `c1ccc2c(SCCCCCCCCCCCSc3c4ccccc4nc4ccccc34)c3ccccc3nc2c1`, the T/C is 106 % of control (dose: 60.0 mg/kg/injection, schedule: Q01DX005 (ip), vehicle: Klucel (hydroxypropylcellulose) (HPC)); 101 % of control (dose: 120.0 mg/kg/injection, schedule: Q01DX005 (ip), vehicle: Klucel (hydroxypropylcellulose) (HPC)); 90 % of control (dose: 240.0 mg/kg/injection, schedule: Q01DX005 (ip), vehicle: Klucel (hydroxypropylcellulose) (HPC)).
On to `CN(C)CCNc1ccc(N)c2sc3ccccc3c(=O)c12`, for which the T/C reads like this: (dose: 25.0 mg/kg/injection, schedule: Q01DX009 (ip), vehicle: saline with Tween-80) 99 % of control and 92 % of control; under setting [3], 100 % of control and 112 % of control and 93 % of control; under setting [4], 112 % of control and 121 % of control.
Turning to `C[C@H](N)C(=O)N[C@@H]1[C@H]2C(=C(O)C[C@@H](O)[C@@H]2O)C(=O)O[C@]1(C)C(Cl)Cl`, the T/C was 150 % of control and 167 % of control (dose: 0.78 mg/kg/injection, schedule: Q01DX009 (ip), vehicle: Klucel (hydroxypropylcellulose) (HPC)); 161 % of control and 187 % of control and 205 % of control (dose: 1.56 mg/kg/injection, schedule: Q01DX009 (ip), vehicle: Klucel (hydroxypropylcellulose) (HPC)); 117 % of control and 118 % of control (dose: 3.12 mg/kg/injection, schedule: Q01DX009 (ip), vehicle: Klucel (hydroxypropylcellulose) (HPC)).
For the compound `CC1(C)N=C(N)N=C(N)N1c1ccc(S(C)(=O)=O)cc1`, the T/C under setting [5] is 103 % of control; the T/C under setting [6] is 101 % of control; the T/C under setting [1] is 100 % of control and 106 % of control.
`COc1cccc2c1C(=O)c1c(O)c3c(c(O)c1C2=O)C[C@@H](C(=O)CO)C[C@@H]3OC1CC(N)C(O)C(C)O1` (stereo not given in full): the T/C was 105 % of control (dose: 6.25 mg/kg/injection, schedule: Q04DX003 (ip), vehicle: water); 105 % of control (dose: 12.5 mg/kg/injection, schedule: Q04DX003 (ip), vehicle: water); 124 % of control (dose: 25.0 mg/kg/injection, schedule: Q04DX003 (ip), vehicle: water).
With `CC(=O)NS(=O)(=O)c1ccc(N=Nc2c(C)nn(C(=O)c3cccnc3)c2-c2ccccc2)cc1`, the T/C by setting is: under setting [1], 87 % of control; under setting [2], 89 % of control.
On to `Cc1ccc(NCCN2CCC(C3CCN(CCNc4ccc(C)c5sc6ccccc6c(=O)c45)CC3)CC2)c2c(=O)c3ccccc3sc12`, for which the T/C was 90 % of control (dose: 6.25 mg/kg/injection, schedule: Q01DX005 (ip), vehicle: saline with Tween-80); 97 % of control under setting [5]; 95 % of control under setting [6]; 94 % of control under setting [1].
In the case of `c1ccc2c(c1)CN1CCN=C1N2`, the T/C runs as follows: (dose: 25.0 mg/kg/injection, schedule: Q01DX009 (ip), vehicle: saline) 100 % of control; under setting [7], 94 % of control.
As to `COc1cc(CO)ccc1O`, the T/C reads like this: under setting [8], 102 % of control and 105 % of control; under setting [9], 89 % of control and 93 % of control; (dose: 400.0 mg/kg/injection, schedule: Q01DX009 (ip), vehicle: saline) 99 % of control and 104 % of control; (dose: 600.0 mg/kg/injection, schedule: Q01DX009 (ip), vehicle: saline) 107 % of control and 89 % of control.
For `CCc1nc(N)nc(N)c1-c1ccc(Cl)c([N+](=O)[O-])c1`, the T/C runs as follows: (dose: 0.78 mg/kg/injection, schedule: Q01DX009 (ip), vehicle: distilled water + Tween-80) 105 % of control; (dose: 3.13 mg/kg/injection, schedule: Q01DX009 (ip), vehicle: distilled water + Tween-80) 120 % of control and 123 % of control; (dose: 6.25 mg/kg/injection, schedule: Q01DX009 (ip), vehicle: distilled water + Tween-80) 170 % of control; (dose: 12.5 mg/kg/injection, schedule: Q01DX009 (ip), vehicle: distilled water + Tween-80) 163 % of control.
For `COC(=O)c1cc(=O)n(-c2ccccc2F)c(SC)n1`, the T/C is, setting by setting: (dose: 25.0 mg/kg/injection, schedule: Q04DX003 (ip), vehicle: Klucel (hydroxypropylcellulose) (HPC)) 105 % of control; (dose: 50.0 mg/kg/injection, schedule: Q04DX003 (ip), vehicle: Klucel (hydroxypropylcellulose) (HPC)) 104 % of control; (dose: 100.0 mg/kg/injection, schedule: Q04DX003 (ip), vehicle: Klucel (hydroxypropylcellulose) (HPC)) 106 % of control.
For the compound `CC(C)c1ccc(/C(O)=C/C(=O)C(=O)/C=C(/O)c2ccc(C(C)C)cc2)cc1`, the T/C is 100 % of control (dose: 100.0 mg/kg/injection, schedule: Q04DX002 (ip), vehicle: saline); 100 % of control (dose: 200.0 mg/kg/injection, schedule: Q04DX002 (ip), vehicle: saline); 99 % of control (dose: 400.0 mg/kg/injection, schedule: Q04DX002 (ip), vehicle: saline).
In the case of `CC1=NCC[N-]CC[N-]CCN=C(C)C2CCCC1[N-]2.[Mn+3]`, the T/C was 100 % of control (dose: 7.5 mg/kg/injection, schedule: Q01DX005 (ip), vehicle: saline with Tween-80); 96 % of control (dose: 15.0 mg/kg/injection, schedule: Q01DX005 (ip), vehicle: saline with Tween-80); 96 % of control (dose: 30.0 mg/kg/injection, schedule: Q01DX005 (ip), vehicle: saline with Tween-80).
On to `COc1ccc(/C=C/C(=O)c2cc(O)cc(OC)c2)cc1`, for which the T/C (dose: 6.25 mg/kg/injection, schedule: Q01DX009 (ip), vehicle: Klucel (hydroxypropylcellulose) (HPC)) is 101 % of control; the T/C (dose: 12.5 mg/kg/injection, schedule: Q01DX009 (ip), vehicle: Klucel (hydroxypropylcellulose) (HPC)) was 96 % of control; the T/C (dose: 25.0 mg/kg/injection, schedule: Q01DX009 (ip), vehicle: Klucel (hydroxypropylcellulose) (HPC)) is 101 % of control; the T/C (dose: 50.0 mg/kg/injection, schedule: Q01DX009 (ip), vehicle: Klucel (hydroxypropylcellulose) (HPC)) was 110 % of control.
`COc1ccc(C(=O)SCCCN=C(N)N)cc1`: the T/C reads like this: under setting [1], 103 % of control; under setting [2], 97 % of control.
With `O=C1C=C2OCOC2=C/C1=C/C=C/c1ccccc1`, the T/C reads like this: (dose: 2.5 mg/kg/injection, schedule: Q01DX009 (ip), vehicle: saline with Tween-80) 102 % of control; (dose: 5.0 mg/kg/injection, schedule: Q01DX009 (ip), vehicle: saline with Tween-80) 101 % of control; (dose: 10.0 mg/kg/injection, schedule: Q01DX009 (ip), vehicle: saline with Tween-80) 103 % of control.
`CC(C)(C)CC(C)(C)c1ccc(OCc2ccc(C(F)(F)F)cc2)cc1`: the T/C is 100 % of control under setting [3], 96 % of control under setting [4] and 100 % of control under setting [10].
With `[CH3][Ge]([CH3])[CH3].[CH3][Ge]([CH3])[CH3]`, the T/C reads like this: under setting [7], 95 % of control; under setting [8], 91 % of control; under setting [9], 97 % of control.
Turning to `COCn1ccnc1C(=O)c1ccco1`, the T/C is 103 % of control under setting [3], 111 % of control under setting [4] and 94 % of control under setting [10].
